Results: patent US11053258B2, “Pyrimidine carboxamides as GSK-3 inhibitors” (BRISTOL-MYERS SQUIBB COMPANY, priority 2016, dated 2021)
“And” between values parts separate entries of the source, which are not always exact repeats. Identical values can stand only once.

How the values were obtained:
[1] = from C=CCN1CCN(c2cc(F)ncc2NC(=O)c2ccnc(NCC(C)(O)CC=C)n2)CC1; rcm bond; 18-membered ring; Zhan 1B; ClCH2CH2Cl; 4.5 mM; 70.0 °C; 1.5 h
[2] = from C=CCCC(O)CNc1nccc(C(=O)Nc2cnc(F)cc2N2CCN(CC=C)CC2)n1; rcm bond; 19-membered ring; Zhan 1B (30 mol%); ClCH2CH2Cl; 5.17 mM; 70.0 °C; 3.0 h
[3] = biological target: GSK3β (Homo sapiens, UniProt P49841); experiment: GSK3β kinase assay (Caliper LabChip3000, fluoresceinated peptide substrate); type: biochemical; details: first value of cell; 250 pM enzyme, 20 uM ATP, 20 hours room temperature; read-out: GSK3β/α (nM): GSK3β IC50
Chain of GSK3β (P49841 whole entry, species assumed): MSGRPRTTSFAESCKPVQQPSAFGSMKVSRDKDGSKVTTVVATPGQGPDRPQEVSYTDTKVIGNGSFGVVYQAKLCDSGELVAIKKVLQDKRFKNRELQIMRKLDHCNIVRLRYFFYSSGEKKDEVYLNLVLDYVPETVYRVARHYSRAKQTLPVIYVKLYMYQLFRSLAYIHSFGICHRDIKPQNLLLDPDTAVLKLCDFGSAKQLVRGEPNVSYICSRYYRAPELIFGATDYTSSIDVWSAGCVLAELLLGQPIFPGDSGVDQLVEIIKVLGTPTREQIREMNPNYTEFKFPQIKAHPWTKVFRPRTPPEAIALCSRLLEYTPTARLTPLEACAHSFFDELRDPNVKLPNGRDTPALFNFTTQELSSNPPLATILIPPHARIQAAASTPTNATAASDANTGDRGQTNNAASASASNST
Method: (§1) The kinase assay was performed in V-bottom 384-well plates. The final assay volume was 30 μl prepared from 15 μl additions of enzyme, substrates (fluoresceinated peptide FL-KRREILSRRP[ps]ERYR-NH2 and ATP) and test compounds in assay buffer (100 mM HEPES pH 7.4, 10 mM MgCl2, 25 mM Beta-Glycerolphosphate, 0.015% Brij35 and 0.25 mM DTT). The reaction was incubated at room temperature for 20 hours and terminated by adding 45 μl of 35 mM EDTA to each sample. The reaction mixture was analyzed on the Caliper LabChip3000 (Caliper, Hopkinton, Mass.) by electrophoretic separation of the unphosphorylated substrate and phosphorylated product. Inhibition data were calculated by comparison of the no enzyme control reactions for 100% inhibition and vehicle-only reactions for 0% inhibition. The final concentration of reagents in the assay were 250 pM GSK3α or GSK3β, 20 uM ATP, 1.5 uM FL-KRREILSRRP[ps]ERYR-NH2, and 1.6% DMSO. Dose response curves were generated to determine the concentration required to inhibit 50% of the kinase activity (IC50). Compounds were dissolved at 10 mM in dimethylsulfoxide (DMSO) and evaluated at eleven concentrations. IC50 values were derived by non-linear regression analysis.

[4] = biological target: GSK3α (Homo sapiens, UniProt P49840); experiment: GSK3α kinase assay (Caliper LabChip3000, fluoresceinated peptide substrate); type: biochemical; details: second value of cell; 250 pM enzyme, 20 uM ATP, 20 hours room temperature; read-out: GSK3β/α (nM): GSK3α IC50
Chain of GSK3α (P49840 whole entry, species assumed): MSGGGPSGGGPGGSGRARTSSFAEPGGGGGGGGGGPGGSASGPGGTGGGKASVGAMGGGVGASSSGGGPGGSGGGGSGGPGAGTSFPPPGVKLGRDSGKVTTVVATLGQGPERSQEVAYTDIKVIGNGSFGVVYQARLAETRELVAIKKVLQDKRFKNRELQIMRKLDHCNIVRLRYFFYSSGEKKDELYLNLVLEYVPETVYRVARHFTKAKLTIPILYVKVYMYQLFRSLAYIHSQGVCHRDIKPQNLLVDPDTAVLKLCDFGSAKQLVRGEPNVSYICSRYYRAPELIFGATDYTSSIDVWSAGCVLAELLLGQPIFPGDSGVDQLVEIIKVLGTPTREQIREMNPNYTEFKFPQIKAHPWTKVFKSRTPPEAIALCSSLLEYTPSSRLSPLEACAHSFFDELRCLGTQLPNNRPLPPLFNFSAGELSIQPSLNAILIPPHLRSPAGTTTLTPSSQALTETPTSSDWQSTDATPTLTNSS
Method: as §1

[5] = tested on: pTau; experiment: pTau assay; type: cell-based

Row | IC50 [3] [nM] | IC50 [4] [nM] | IC50 [5] [nM] | SMILES | ring closure, yield after HPLC [1] [%] | ring closure, isolated yield [2]
1 | – | – | – | CC1(O)CC=CCN2CCN(CC2)c2cc(F)ncc2NC(=O)c2ccnc(n2)NC1 (centres unmarked) | 37 | –
2 | 14.7 | 17.5 | 1870 | O=C1Nc2cnc(F)cc2N2CCN(CC=CCCC(O)CNc3nccc1n3)CC2 (single isomer, unassigned) [Example 28, (E)-2^6-fluoro-8-hydroxy-3,6-diaza-5(4,2)-pyrimidina-1(1,4)-piperazina-2(4,3)-pyridinacyclotridecaphan-11-en-4-one] | – | 22% and 13%
